Reference: patent publication US20250041270A1, “SMALL MOLECULE DRUGS THAT REDUCE PROTEIN AGGREGATION” (BIOVENTURES, LLC, priority 2021, published 2025)

Experiments:
SH-SY5Y-APPSw cells = test: Total sarkosyl-insoluble aggregate protein, SYPRO Ruby stained gels; format: cell-based, human; conditions: for suppression of aggregate protein: cells treated 48 h, sarkosyl-insoluble fraction
Experimental: MSR1 treatment of SH-SY5Y-APPSw, cells. Human neuroblastoma (SH-SY5Y-APPSw) cells were grown as previously described (Kakraba et al., 2)19, Liu et al., 2005). SH-SY5Y-APPSw cells, expressing an aggregation-prone “Swedish” double mutant of amyloid precursor protein (APPSw), were grown in DMEM plus 10% (v/v) FBS at 37° C. Cells were suspended in trypsin/EDTA and rinsed in buffer prior to replating or harvesting. Immediately preceding assay, cells were grown 48 hr in the presence of 10-μM MSR1 dissolved in DMSO (0.02% final concentration), or 0.02% DMSO (solvent alone) for control cells. Cells were harvested, total protein was isolated, and aggregate proteins were purified as described below.
Isolation of aggregate proteins. Cultured human cells were collected, flash frozen in liquid nitrogen, and homogenized at 0° C. in the presence of buffer containing nonionic detergent (1% v/v NP40, 20-mM Hepes pH 7.4, 300-mM NaCl, 2-mM MgCl2, and protease/phosphatase inhibitors [CalBiochem]). Lysates were centrifuged (5 min, 3000 rpm at 4° C.) to remove debris. After removal of cytosolic proteins (soluble in 1% NP40 nonionic detergent) by centrifugation (18 min, 13,000×g at 4° C.), protein pellets were brought to pH 7.4 with 0.1-M HEPES buffer containing 1% v/v sarkosyl(sodium lauryl sarcosinate) and 5-mM EDTA, and centrifuged 30 min at 100,000×g. Pellet proteins (the sarkosyl-insoluble fraction) were resuspended in Laemmli loading buffer (containing 50-mM dithiothreitol and 2% v/v SDS, sodium dodecyl sulfate), heated 5 min at 95° C. to dissolve proteins soluble in this buffer, and separated by electrophoresis on 4-20% polyacrylamide gradient gels containing 1% v/v SDS. Gels were stained with SYPRO Ruby (ThermoFisher) or Coomassie Blue to visualize protein. Gel lanes were robotically cut into 1-mm slices, and digested thoroughly with trypsin. Proteins in each slice were identified by mass spectrometry as described previously (Ayyadevara et al., 2015; Ayyadevara et al., 2016a; Ayyadevara et al., 2016b; Ayyadevara et al., 2016c; Ayyadevara et al., 2016d; Balasubramaniam et al., 2018).

C. elegans strain CL2355 = test: Chemotaxis to n-butanol in Aβ1-42 expressing C. elegans; format: in vivo; conditions: 0.1 μM
Experimental: Chemotaxis and paralysis assay)s in Aβ-tragsgenic C elegans strains CL2355 and CL4176. Transgenic C. elegans strains, expressing Aβ1-42 in neurons (C2355) or in muscle (CL4176), were grown at 20° C. with ample 1. coli (OP50) bacteria, and on day 1 of adult life worms were lysed to release eggs and thus generate a synchronized cohort. Eggs were then placed on I00-mm NGM-agar Petri dishes seeded with RNAi-expressing bacteria (E coil H-T1′15) targeting a GFAP orthologue, or empty-vector control bacteria. Worms at the L3-L4 transition were upshifted to 25.5° C. to induce human Aβ1-42 transgene expression and assayed after 48 hours. Chemotaxis (Dosanjh et al., 2010) and paralysis (Dostal and Link, 2010) assays were performed as described previously (Ayyadevara et al., 2017; Ayyadevara et al., 2016b; Ayyadevara et al., 2016d; Kakraba et al., 2019).
(§1) RNAi in C.elegans. RNA-mediated interference (RNAi) is achieved by feeding bacteria that express double-stranded RNA corresponding to an exonic fragment of the mRNA target (Ayyadevara et al., 2016c; Fire et al., 1991; Fire et al., 1998; Kakraba et al., 2019). Briefly, worm cultures were synchronized by alkaline hypochlorite lysis to release unlaid eggs. […] Worms on adult day 3 (5.5 days post-hatch) were imaged to assess total aggregate fluorescence (strain AM141), or were assessed for paralysis (VH255) or chemotaxis toward n-butanol (CL2355).

C. elegans strain VH255 = test: Paralysis assay in human tau-expressing C. elegans; format: in vivo; conditions: 1-μM; compared with siRNA against ifp-1
Experimental: Paralysis assays in human tau-expressing C. elegans strain VH255. Transgenic C. elegans strain VH255, with pan-neuronal expression of human tau (Brandt et al., 2009), are maintained at 25° C. on agar plates overlaid with a lawn of E. coli (OP50) bacteria. Worms are lysed in alkaline hypochlorite solution to obtain unlaid eggs used to generate a synchronized culture. The eggs were then transferred to 100-mm NGM-agar plates, to which MSR1 or MSR2 had been added to a final concentration of 1 μM. For ifp-1 RNAi knockdown, the bacterial lawn consisted of strain HT115 expressing an exonic segment of double-stranded ifp-I RNA (see next section). The worms were washed and added to fresh, drug-equilibrated plates every two days. Assays were performed on day-3 adults to assess the fraction of paralyzed worms.

C. elegans strain AM141 = test: Q40::YFP aggregate fluorescence per worm; format: in vivo; conditions: 5 days post-hatch
Text: C. elegans strains: Nematode strains used in this study were all obtained from the Caenorhabditis Genetics Center (CGC; Minneapolis, MN). Nematode models of Alzheimer's disease-like arnyloidosis were CL4176 [smg-1^ts; myo-3p::Aβ1-42::let-851 3′-UTR; rol-6(sul006)] expressing human Aβ1-42 in muscle; and CL2355 [smg-l^ts; snb-1::Aβ1-42::3′UTR(long); mtl-2::gfp] expressing human Aβ1-42 in all neurons. Strain AM141 expresses a polyglutamine reporter (Q40::YFP) in muscle, and thus serves as a model of glutamine-tract aggregation similar to that observed in Huntington disease and several other neuropathologies (Morley et al., 2002). All strains were propagated at 20° C. on2% (w/v) agar plates containing nematode growth medium (NGM), overlaid with E col strain OP50 unless otherwise noted.
as §1

C. elegans = test: Effect on C. elegans development; format: in vivo; conditions: all doses tested, data not shown
neuroblastoma cells = test: Initial testing for cytotoxicity in neuroblastoma cells; format: cell-based, human; conditions: data not shown

C. elegans development (C. elegans) | Compound | suppression of aggregate protein (SH-SY5Y-APPSw cells) | suppression of protein aggregation (SH-SY5Y-APPSw cells; summary statement: a variety of model systems) | chemotaxis restored to (C. elegans strain CL2355) [%] | paralysis caused by tau aggregation (C. elegans strain VH255) | reduction of aggregate intensity per worm (C. elegans strain AM141; 10 μM) [%] | reduction of aggregate intensity per worm (C. elegans strain AM141; 0.1-μM) [%] | cytotoxicity (neuroblastoma cells)
– | O=C(NC[C@H]1CC[C@H](CO)CC1)c1ccc(N2CCCC2)c(Cl)c1 [MSR1, 3-chloro-N-{[trans-4-(hydroxymethyl)cyclo-hexyl]methyl}-4-pyrrolidin-1-ylbenzamide] | 60-75% | 60-75% | ~90 | alleviated to a similar extent | ~50 | 35 | –
– | O=C(c1cc2c([nH]c1=O)CCCC2)N1CCN(c2ccc(Cl)cn2)CC1 [MSR2, 3-{[4-(5-chloro-2-pyridinyl)-1-piperazinyl]carbonyl}-5,6,7,8-tetrahydro-2(1H)-quinolinone] | did not significantly reduce | – | – | – | – | – | –
delay C. elegans development | O=C(c1ccc(N2CCCC2)c(Cl)c1)N1CCN(c2ccccn2)CC1 [MSR3, 1-(3-chloro-4-pyrrolidin-1-ylbenzoyl)-4-pyridin-2-ylpiperazine] | – | – | – | – | – | – | cytotoxic
